In patent publication US7985740B2, “Purine derivatives as agonists of the adenosine A2A receptor” (Glaxo Group Limited, priority 2005, dated 2011):

What was measured:
[1] = biological target: T1, Human Serum Albumin (HSA) (Homo sapiens, UniProt P02768); assay: Human serum albumin (HSA) binding, immobilised HSA HPLC column; format: in vitro ADME; conditions: for % HSA measured / logK measured: HSA column; for logK measured: derived from the calibration curve; for logtR: logarithm of typical retention time on the HSA column; for tR: typical retention time on the HSA column
T1 construct: purchased Chromtech (Cheshire, UK)
Description: Instrument: Agilent HP1100 HPLC instruments were used throughout.
HPLC columns: Chromtech Immobilised HSA HPLC column 50×3 mm was purchased from Chromtech (Cheshire, UK).
Mobile phase and detection: The mobile phase A was 50 mM pH 7.4 ammonium acetate solution, while mobile phase B was 2-Propanol (HPLC grade, Runcorn, UK). The mobile phase flow rate was 1.8 ml/min. The column temperature was kept at 30° C. The gradient profile and run time were the same with each column, the linear gradient from 0 to 30% 2-propanol was applied from 0 to 3 minutes. From 3 to 5 minutes, the mobile phase composition was constant 30% 2-propanol and 70% 50-mM ammonium acetate. From 5 min to 5.2 min the mobile phase composition was change to 100% ammonium acetate buffer only and remained the same until the end of the run. Each separation was stopped after 6 minutes. The column temperature was kept at 30° C.
Detection: Chromatograms were recorded at 230 and 254 nm by a diode array UV absorption detector at room temperature.

[2] = linear conversion of literature % PPB; cited from earlier work
[3] = biological target: T2, human adenosine A3 receptor (Homo sapiens, UniProt P0DMS8); assay: Agonist activity at human adenosine A3 receptor, CHO cells with cAMP response element SPAP reporter; format: cell-based; conditions: forskolin enhanced cAMP
T2 construct: expressed in transfected cells
T2 sequence (P0DMS8 1-318): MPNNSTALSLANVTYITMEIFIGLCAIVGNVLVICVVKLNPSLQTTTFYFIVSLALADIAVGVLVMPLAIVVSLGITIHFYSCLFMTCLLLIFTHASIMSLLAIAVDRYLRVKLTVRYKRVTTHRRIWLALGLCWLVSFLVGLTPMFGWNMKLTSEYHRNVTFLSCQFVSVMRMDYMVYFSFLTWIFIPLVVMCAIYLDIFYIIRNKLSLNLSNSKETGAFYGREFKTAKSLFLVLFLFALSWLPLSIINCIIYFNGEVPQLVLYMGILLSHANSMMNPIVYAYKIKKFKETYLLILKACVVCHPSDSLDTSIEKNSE
Description: The adenosine A3 agonist potency of compounds are determined using Chinese Hamster ovary cells stably expressing the human adenosine A3 receptor and the cAMP response element SPAP (secreted placental alkaline phosphatase). Increasing the level of cAMP in theses cell causes an increase in the transcription of the SPAP reporter gene, which can be quantified by addition of a colour substrate to measure a coloured product. The adenosine A3 receptor is Gi linked so levels cAMP have to be enhanced by forskolin in these cells. Activation of the adenosine A3 receptor is determined by the reduction of forskolin enhanced cAMP, which is measured as a decrease in the coloured product. The Adenosine A3 activity of the test compounds is expressed as a ratio to that of the non-selective adenosine receptor agonist, N-ethyl carboxamide adenosine (NECA).

neutrophilia = assay: Inhibition of LPS-induced lung neutrophilia in rats, intratracheal dosing; format: in vivo; conditions: rat, retested at 30 ug/kg, similar method
Description: Rats are lightly anaesthetized (isofluorane in oxygen) and vehicle or test substance administered intratracheally using a cannula placed trans-orally (200 μl). Following intratracheal administration, rats are returned to their cages and allowed free access to both food and water. Thirty min later, rats are placed in a perspex box and exposed to aerosolized lipopolysaccharide (LPS) (0.15 mg/ml, serotype 0127:B8) for 15 min (Devilbiss nebuliser) at a flow rate of 15 ml/min. Animals are killed 4 h later with pentobarbital (250 mg/kg i.p.). The lungs are lavaged using 3 aliquots (5 ml) of phosphate-buffered saline (Sigma catalogue no. P3813, pH 7.4) containing heparin (10 units/ml); recovered cells are pooled (pooled volume of recovered fluid will be recorded) and centrifuged (1300 rpm for 7 min). The supernatant is removed by aspiration and the cell pellet resuspended in 1 ml phosphate-buffered saline. Total cells are counted (Sysmex Microcell Counter F-500, TOA Medical Electronics Ltd., Japan). Smears are made by diluting recovered fluid (to approximately 10^6 cells/ml) and spinning an aliquot (100 μl) in a centrifuge (Cytospin, Shandon, UK). […] A total of 300 cells per smear are counted by light microscopy under oil immersion (×1000).

T1 sequence (P02768 25-609): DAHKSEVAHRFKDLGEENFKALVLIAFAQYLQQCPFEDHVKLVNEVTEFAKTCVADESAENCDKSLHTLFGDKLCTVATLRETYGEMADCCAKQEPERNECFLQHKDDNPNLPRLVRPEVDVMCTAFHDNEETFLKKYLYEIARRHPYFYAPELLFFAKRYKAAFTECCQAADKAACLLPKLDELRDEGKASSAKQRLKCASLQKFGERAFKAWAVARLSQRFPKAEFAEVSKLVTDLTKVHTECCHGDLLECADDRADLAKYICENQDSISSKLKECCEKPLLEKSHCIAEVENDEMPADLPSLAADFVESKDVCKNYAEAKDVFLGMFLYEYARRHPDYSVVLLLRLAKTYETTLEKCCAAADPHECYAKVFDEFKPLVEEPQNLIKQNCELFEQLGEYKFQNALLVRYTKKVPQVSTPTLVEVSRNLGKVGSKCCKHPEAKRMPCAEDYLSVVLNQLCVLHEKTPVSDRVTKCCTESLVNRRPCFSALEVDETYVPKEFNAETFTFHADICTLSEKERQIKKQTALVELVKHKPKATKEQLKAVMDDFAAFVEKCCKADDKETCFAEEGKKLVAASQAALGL

SMILES	% HSA measured ([1]; pH 7.4) [%]	logK measured [1]	logtR [1]	tR [1]	lit logK [2]	Adenosine A3 agonist activity [3]	HSA binding ([1]; pH 7.4)	inhibition of neutrophilia (neutrophilia) [%]
O=C1CN=C(c2ccccn2)c2cc(Br)ccc2N1 [Bromazepam]	74.7	0.45	0.06	1.16	0.17	–	–	–
CCn1nnc(C2OC(n3cnc4c(NC5CCC(Nc6ccnc(NCCc7nc[nH]c7C)n6)CC5)nc(NCCc5nc[nH]c5C)nc43)C(O)C2O)n1.O=CO.O=CO [Example 8, (2R,3S,4R,5R)-2-(2-ethyl-2H-tetrazol-5-yl)-5-[2-{[2-(5-methyl-1H-imidazol-4-yl)ethyl]amino}-6-({trans-4-[(2-{[2-(5-methyl-1H-imidazol-4-yl)ethyl]amino}-4-pyrimidinyl)amino]cyclohexyl}-amino)-9H-purin-9-yl]tetrahydro-3,4-furandiol, diformate]	–	–	–	–	–	functionally inactive over the concentration range of the assay	greater than 90%	–
NC(=O)N1c2ccccc2C=Cc2ccccc21 [Carbamazepine]	80.5	0.59	0.13	1.35	0.46	–	–	–
CNC(=C[N+](=O)[O-])NCCSCc1csc(CN(C)C)n1 [Nizatidine]	24.6	−0.49	–	0.40	−0.28	–	–	–
CCCC1O[C@@H]2C[C@H]3[C@@H]4CCC5=CC(=O)C=C[C@]5(C)[C@H]4[C@@H](O)C[C@]3(C)[C@]2(C(=O)CO)O1 (stereo partly drawn) [Budesonide]	85.6	0.75	0.20	1.6	0.83	–	–	–
CCn1nnc([C@H]2O[C@@H](n3cnc4c(N[C@H]5CC[C@H](Nc6ccnc(N[C@H]7CC[C@H](N)CC7)n6)CC5)nc(N[C@H]5CC[C@H](N)CC5)nc43)[C@@H](O)[C@H]2O)n1.O=CO.O=CO.O=CO [Example 10, (2R,3S,4R,5R)-2-(2-[(trans-4-aminocyclohexyl)amino]-6-{[trans-4-({2-[(trans-4-aminocyclohexyl)amino]-4-pyrimidinyl}amino)cyclohexyl]-amino}-9H-purin-9-yl)-5-(2-ethyl-2H-tetrazol-5-yl)tetrahydro-3,4-furandiol, triformate]	–	–	–	–	–	functionally inactive over the concentration range of the assay	–	–
CN1C(C(=O)Nc2ccccn2)=C(O)c2ccccc2S1(=O)=O [Piroxicam]	96.6	1.34	0.49	3.1	1.16	–	–	–
O=C(O)Cc1ccccc1Nc1c(Cl)cccc1Cl [Diclofenac]	–	–	–	–	1.92	–	–	–
COC(=O)C1=C(C)NC(C)=C(C(=O)OCCN(C)Cc2ccccc2)C1c1cccc([N+](=O)[O-])c1 (stereo not drawn) [Nicardipine]	95.0	1.22	0.43	2.7	–	–	–	–
CCn1nnc([C@H]2O[C@@H](n3cnc4c(N[C@H]5CC[C@H](Nc6nc(NCCCCN7CCCC7)nc7[nH]cnc67)CC5)nc(NCCCCN5CCCC5)nc43)[C@H](O)[C@@H]2O)n1 [Example 4, (2R,3S,4R,5R)-2-(2-ethyl-2H-tetrazol-5-yl)-5-[2-{[4-(1-pyrrolidinyl)butyl]amino}-6-({trans-4-[(2-{[4-(1-pyrrolidinyl)butyl]amino}-1H-purin-6-yl)amino]cyclohexyl}amino)-9H-purin-9-yl]tetrahydro-3,4-furandiol, triformate]	–	–	–	–	–	–	–	> 50
